Series [1] relates to DG-75 Burkitt lymphoma cell line (EBV−, chemoresistant). The note with it: 48 h.
Series [2] has as its system MUTU-1 Burkitt lymphoma cell line (EBV+). Description: cells. As to conditions: Mutu-1, 24 h; for viability at 1 µM: read-out: MUTU-1 Cell Viability % 1 μM, 1 μM, 24 h; for viability at 10 µM: read-out: MUTU-1 Cell Viability % 10 μM, 10 μM, 24 h; for IC50: read-out: IC50 MUTU-I 24 h.
The test system of series [3] is DG-75 Burkitt lymphoma cell line (EBV−, chemoresistant). Description: cells. The note with it: Homo sapiens, DG-75, 48 h; for viability at 1 µM: read-out: DG-75 Cell Viability % 1 μM, 1 μM, 48 h; for viability at 10 µM: read-out: DG-75 Cell Viability % 10 μM, 10 μM, 48 h.
Series [4] relates to MUTU-1 Burkitt lymphoma cell line (EBV+). As to conditions: 24 h.
The test system of series [5] is DG-75 Burkitt's lymphoma cell line. Kind of series: FITC Annexin V/PI FACS analysis of apoptosis in DG-75 cells. The note with it: 10 µM, 48 h. The class given is cell-based. How it is done:
(§1) BL cells DG-75 and MUTU-1 (750,000) were treated with the specified concentration of the selected compound and incubated for 24 h (MUTU-1) or 48 h (DG-75) with taxol as the positive control. Samples were harvested by centrifugation and the pellets were rinsed with 0.5 mL of Ca^2+ Annexin V binding buffer (0.1 M HEPES, pH 7.4; 1.4 M NaCl; 25 mM CaCl2) each and pelleted again by centrifugation. Supernatants were decanted and the pellets were suspended again in 50 µL FITC Annexin V (diluted 1:33 in Ca^2+ Annexin V binding buffer), the samples were then placed on ice and incubated for 10 min in the dark. After the incubation period 0.5 mL of Ca^2+ Annexin V binding buffer was added and samples were pelleted by centrifugation. The supernatant was decanted and the pellet was suspended in PI solution (500 µL; 0.5 µg/mL). After 1 h, the samples were recorded using a CyAn ADP flow cytometer (Beckman Coulter Inc., Brea, CA, USA). 10,000 cells were analysed with the Flowjo software package. Taxol was used as a positive control for cell death.
Background: A flow cytometer gives signals particle by particle.

Series [6] has as its system MUTU-1 Burkitt's lymphoma cell line. Kind of series: FITC Annexin V/PI FACS analysis of apoptosis in MUTU-I cells. The class given is cell-based. As to conditions: 0.5 µM, 24 h. How it is done:
as §1

Structures are written as SMILES.

By viability is commonly meant a read-out of living cells in per cent, often relative to untreated cells. For orientation: melting point means the temperature of the solid-liquid transition. `N/N=C/C12c3ccccc3C(Cl)(c3ccccc31)C1C(=O)NC(=O)C12` (centres unmarked) [Compound 23i, (E)-9-Chloro-10-(hydrazonomethyl)-9,10-dihydro-9,10-[3,4]epipyrroloanthracene-12,14-dione] returned a melting point of 241 to 244 °C. For the same molecule, the “DG-75 Cell Viability % 10 μM” value in series [1] amounted to 18.9%. In series [2], the viability at 1 µM was found to be 102% and the viability at 10 µM amounted to 106%. Besides, in series [3], the viability at 1 µM stood at 85.8% and the viability at 10 µM was found to be 19%.

For `N#C/C=C/C12c3ccccc3C(c3ccccc31)C1C(=O)NC(=O)C12` (centres unmarked) [Compound 23b, (E)-3-(12,14-Dioxo-9,10-[3,4]epipyrroloanthracen-9(10H)-yl)acrylonitrile], the melting point is 289 to 300 °C. For the same molecule, the “DG-75 Cell Viability % 10 μM” value in series [1] is reported as 54.1%. In series [2], the viability at 1 µM was 79.4% and the viability at 10 µM was found to be 79%. Moreover, in series [3], the viability at 1 µM came to 101% and the viability at 10 µM was 54%.

Take `O=C1C2C3c4ccccc4C(/C=C/[N+](=O)[O-])(c4ccccc43)C2C(=O)N1CO` (centres unmarked) [Compound 13n, (E)-13-(Hydroxymethyl)-9-(2-nitrovinyl)-9,10-dihydro-9,10-[3,4]epipyrroloanthracene-12,14-dione]: the melting point was in the range of 230 to 232 °C. Further, in series [2], the viability at 10 µM turned out to be 1.8%. In addition, in series [4], the “MUTU-1 Cell Viability % 1 μM” value is reported as 0%. Besides, in series [3], the viability at 1 µM came to 74.6% and the viability at 10 µM came to 20.4%.

The IC50 is the concentration at which inhibition is half-maximal. Molecule `O=[N+]([O-])C=CC12c3ccccc3C(Cl)(c3ccccc31)c1ccccc12` [Compound 20d, (E)-9-Chloro-10-(2-nitrovinyl)-9,10-dihydro-9,10-[1,2]benzenoanthracene] registered a melting point of 259 to 261 °C. In addition, in series [2], the IC50 came to 280 nM, the viability at 1 µM is 0.95% and the viability at 10 µM was determined as 0.34%. In series [4], the “cell viability in MUTU-I cell line (1 and 10 μM together or concentration not stated)” value was below 6%. In addition, in series [3], the viability at 1 µM amounted to 46% and the viability at 10 µM was found to be 0%.

`CN1C(=O)C2C3c4ccccc4C(/C=C/[N+](=O)[O-])(c4ccccc43)C2C1=O` (centres unmarked) [Compound 13m, (E)-13-Methyl-9-(2-nitrovinyl)-9,10-dihydro-9,10-[3,4]epipyrroloanthracene-12,14-dione] had a melting point of 267 to 268 °C. In series [2], the IC50 worked out at 320 nM and the viability at 10 µM was 7.4%. Further, the “MUTU-1 Cell Viability % 1 μM” value in series [4] stood at 0%. Further, in series [3], the viability at 1 µM worked out at 38.1% and the viability at 10 µM was determined as 0.93%.

On to `N#CC1CC2c3ccccc3C1(/C=C/[N+](=O)[O-])c1ccccc12` (centres unmarked) [Compound 19a, (E)-10-(2-Nitrovinyl)-9,10-dihydro-9,10-ethanoanthracene-11-carbonitrile], for which the “apoptosis in DG-75 at 10 µM” value in series [5] was found to be 87%. Further, the “apoptosis in MUTU-I at 0.5 µM” value in series [6] is above 90%. In series [2], the IC50 came out at 380 nM, the viability at 1 µM came to 9% and the viability at 10 µM stood at 0%. In series [3], the viability at 1 µM was determined as 20.6% and the viability at 10 µM is 0%. Moreover, the IC50 in series [3] (read-out: IC50 DG-75 48 h) is 690 nM.

`O=C1NC(=O)C2C1C1c3ccccc3C2(/C=C/[N+](=O)[O-])c2ccccc21` (centres unmarked) [Compound 13g, (E)-9-(2-Nitrovinyl)-9,10-dihydro-9,10-[3,4]epipyrroloanthracene-12,14-dione] showed a melting point of 176 to 178 °C. Further, the “DG-75 Cell Viability % 1 μM” value in series [1] (1 μM) is 1.1%. Moreover, in series [2], the viability at 1 µM turned out to be 0.47% and the viability at 10 µM came to 7.2%. In addition, in series [3], the viability at 1 µM was 1% and the viability at 10 µM is 11.7%.

For the molecule `O=C1OC(=O)C2C1C1c3ccccc3C2(/C=C/[N+](=O)[O-])c2ccccc21` (centres unmarked) [Compound 13a, (E)-9-(2-Nitrovinyl)-9,10-dihydro-9,10-[3,4]furanoanthracene-12,14-dione], the melting point is 244 to 245 °C. In series [2], the viability at 1 µM was determined as 24.4% and the viability at 10 µM stood at 12.5%. Also, the “cell viability in MUTU-I cell line (1 and 10 μM together or concentration not stated)” value in series [4] is 7–24%. In addition, in series [3], the viability at 1 µM was found to be 78.5% and the viability at 10 µM was 62.2%.

The record behind these values is PMC7168933, “Design, Synthesis and Biochemical Evaluation of Novel Ethanoanthracenes and Related Compounds to Target Burkitt’s Lymphoma” (Pharmaceuticals, 2020).
